Results reported in patent publication US11169156B2, “Long wavelength voltage sensitive dyes” (The Regents of the University of California, priority 2015, dated 2021).
Entries after “also recorded” stand apart in the source; their conditions may differ.

Key:
[1] = Spectroscopic studies (absorbance, emission, quantum yield) in vitro; format: physicochemical; conditions: for quantum yield (Φfl): referenced to cresyl violet; for emission maximum: aqueous buffer
[2] = test system: HEK cells; assay: Voltage sensitivity in HEK cells, whole-cell voltage clamp with fluorescence imaging; format: cell-based, Human; conditions: for voltage sensitivity, fractional change in fluorescence: 680 nm emission, n=4 cells
Experimental: Functional imaging of BeRST 1 was performed using a 20× objective paired with image capture from the EMCCD camera at a sampling rate of 0.5 kHz. BeRST 1 was excited using the 633 nm LED with an intensity of 6.7 W/cm^2. For initial voltage characterization (see, FIG. 4) emission was collection with the QUAD filter and dichroic (see above). For investigation into voltage sensitivity during excitation cross-talk (see, FIG. 11) BeRST 1 was excited by a 633 nm LED as above and 390 nm light (violet LED, 20 nm bandpass) with an intensity of 3.3 W/cm^2 and emission was collected with a 680/10 nm bandpass emission filter.
(§1) Analysis of voltage sensitivity in HEK cells was performed using custom Matlab routines. Briefly, a region of interest (ROI) was selected automatically based on fluorescence intensity and applied as a mask to all image frames. Fluorescence intensity values were calculated at known baseline and voltage step epochs. For analysis of BeRST 1 voltage responses in neurons, regions of interest encompassing cell bodies were drawn in ImageJ and the mean fluorescence intensity for each frame extracted. The photostability of BeRST 1 allowed for the calculation of ΔF/F values by subtracting a mean background value from all raw fluorescence frames, bypassing the noise amplification which arises from subtracting background for each frame. All example traces were not averaged. For comparisons of action potentials recorded electrophysiologically and optically, imaging traces were analyzed using spike detection algorithms in the Clampfit 10 software (Molecular Devices). For cross-excitation quantification images were background subtracted. ROIs were made by thresholding to the 25% of the maximum pixel intensity to remove non-stained areas. Mean intensity values for stained neurons were calculated.
For whole-cell, voltage clamp recordings in HEK 293T cells were held at −60 mV and 100 ms hyper- and de-polarizing steps applied from −100 to +100 mV in 20 mV increments.

[3] = test system: rat hippocampal neurons; assay: Action potential imaging in patch-clamped (current clamp) hippocampal neurons; format: cell-based; conditions: 1.8 kHz optical sampling, n=7 cells
Experimental: Hippocampi were dissected from embryonic day 18 Sprague Dawley rats (Charles River Laboratory) in cold sterile HBSS (zero Ca^2+, zero Mg^2+). All dissection products were supplied by Invitrogen, unless otherwise stated. Hippocampal tissue was treated with trypsin (2.5%) for 15 min at 37° C. The tissue was triturated using fire polished Pasteur pipettes, in minimum essential media (MEM) supplemented with 5% fetal bovine serum (FBS; Thermo Scientific), 2% B-27, 2% 1M D-glucose (Fisher Scientific) and 1% glutamax. […]
as §1, with “All example traces were not averaged. For comparisons of action potentials recorded electrophysiologically and optically, imaging traces were analyzed using spike detection algorithms in the Clampfit 10 software (Molecular Devices).” left out, “ROIs were made by thresholding to the 25% of the maximum pixel intensity to remove non-stained areas.” left out, “calculated. […]” for “calculated.”

[4] = test system: rat hippocampal neurons; assay: Effect of dye loading on action potential firing, whole-cell patch clamp without imaging; format: cell-based; conditions: neurons with or without 1 μM dye, n=12 and 11
Experimental: To test if loading of BeRST 1 onto the membrane of neurons has any effect on their action potential firing, ten 500 ms current steps were injected into neurons, in increments of […]. The first action potential from each sweep was analyzed in Clampfit 10 software (Molecular Devices) to give amplitude and kinetic data. The cell capacitance determined by the Clampex software during recording. To evoke single action potentials for electrophysiological and imaging comparisons, short (10 ms) current injections were applied which were 2× the threshold required to evoke a single action potential. Analysis of action potentials was performed using spike detection algorithms in the Clampfit 10 software.

[5] = test system: rat hippocampal neurons; assay: Imaging of action potentials evoked by extracellular field stimulation in hippocampal neurons; format: cell-based
Experimental: Hippocampi were dissected from embryonic day 18 Sprague Dawley rats (Charles River Laboratory) in cold sterile HBSS (zero Ca^2+, zero Mg^2+). All dissection products were supplied by Invitrogen, unless otherwise stated. Hippocampal tissue was treated with trypsin (2.5%) for 15 min at 37° C. The tissue was triturated using fire polished Pasteur pipettes, in minimum essential media (MEM) supplemented with 5% fetal bovine serum (FBS; Thermo Scientific), 2% B-27, 2% 1M D-glucose (Fisher Scientific) and 1% glutamax. The dissociated cells were plated onto 12 mm diameter coverslips (Fisher Scientific) pre-treated with PDL (as above) at a density of 30,000-40,000 cells per coverslip in MEM supplemented media (as above). Neurons were maintained at 37° C. in a humidified incubator with 5% CO2. At 3 days in vitro (DIV) half of the MEM supplemented media was removed and replaced with Neurobasal media containing 2% B-27 supplement and 1% glutamax. Transfection of genetic tools was carried out using Lipofectamine 3000 at 7 DIV. Functional imaging was performed on mature neurons 13-20 DIV, except electrophysiological experiments which were performed on 12-15 DIV neurons.
Extracellular field stimulation was delivered by Grass Stimulator connected to a recording chamber containing two platinum electrodes (Warner), with triggering provided through a Digidata 1332A digitizer and pCLAMP 10 software (Molecular Devices). Action potentials were triggered by 1 ms 80 V field potentials delivered at 5 Hz. To prevent recurrent activity the HBS bath solution was supplemented with synaptic blockers 10 μM 2,3-Dioxo-6-nitro-1,2,3, 4-tetrahydrobenzo[f]quinoxaline-7-sulfonamide (NBQX; Santa Cruz Biotechnology) and 25 μM DL-2-Amino-5-phosphonopentanoic acid (APV; Sigma-Aldrich). Functional imaging of BeRST 1 was performed using the EMCCD camera and a 63× objective. BeRST 1 was excited with a 631 nm light (LED; 631 nm, 28 nm bandpass) with an intensity of 127 W/cm^2. Emission from BeRST 1 was collected with a 680/10 nm bandpass emission filter (after passing through a quadruple dichroic mirror (432/38 nm, 509/22 nm, 586/40 nm, 654 nm LP) or for GCaMP6s and ASAP experiments a QUAD filter (quadruple emission filter (430/32 nm, 508/14 nm, 586/30 nm, 708/98 nm) after passing through the quadruple dichroic mirror. Optical sampling rate of BeRST 1 imaging was 0.5-0.53 kHz, except when imaging with ASAP1 (1.25 kHz). Green spectrum genetic tools (GFP, GCaMP6s and ASAP1) were illuminated using 475 nm light (LED; 475 nm, 34 nm bandpass). For functional imaging an intensity of 33 W/cm^2 for GCaMP6s and 200 W/cm^2 for the more weakly fluorescent ASAP1 was used, which is the maximum 475 nm LED intensity for the system. Emission was collected with a 540/50 nm bandpass filter after passing through a 510 nm longpass dichroic. Functional imaging of GCaMP6s and ASAP was performed at 40 Hz and 1.25 kHz, respectively. Images showing cellular morphology were performed by switching to a lower magnification 20× objective in conjunction with either the EMCCD (GCaMP6s/ASAP1) or sCMOS (GFP) camera.
as §1, with “For comparisons of action potentials recorded electrophysiologically and optically, imaging traces were analyzed using spike detection algorithms in the Clampfit 10 software (Molecular Devices). For cross-excitation quantification images were background subtracted. ROIs were made by thresholding to the 25% of the maximum pixel intensity to remove non-stained areas. Mean intensity values for stained neurons were calculated.” left out

[6] = In vitro cross excitation in aqueous buffer (emission scans with differing excitation wavelengths); format: physicochemical; conditions: emission 680 nm
Experimental: FIG. 12A-C provides for in vitro cross excitation of BeRST 1 and BR. Emission scans of (A) BeRST 1 and (B) BR in aqueous buffer (50 mM TBS, pH 7.5, 0.1% SDS) with differing excitation wavelengths. (C) Relative fluorescence emission intensity at 680 nm vs. excitation wavelength for BeRST 1 (black bars) and BR (grey bars).
Stock solutions of BR and BeRST 1 were prepared in DMSO (1.0-10 mM) and diluted with TBS (50 mM Tris-HCl, pH 7.5, 0.15 M NaCl) solution containing 0.10% (w/w) SDS (1:100 to 1:1000 dilution). UV-Vis absorbance and fluorescence spectra were recorded using a Shimadzu 2501 Spectrophotometer (Shimadzu) and a Quantamaster Master 4 L-format scanning spectrofluorometer (Photon Technologies International). The fluorometer is equipped with an LPS-220B 75-W xenon lamp and power supply, A-1010B lamp housing with integrated igniter, switchable 814 photon-counting/analog photomultiplier detection unit, and MD5020 motor driver. Samples were measured in 1-cm path length quartz cuvettes (Starna Cells). Relative quantum yields were measured in TBS solution containing 0.10% (w/w) SDS or in CH3OH and referenced to cresyl violet in CH3OH, which has a quantum yield of 0.54.

[7] = in CH3OH; cited from earlier work
[8] = aqueous buffer (50 mM TBS, pH 7.5, 0.1% SDS)

COc1cc(N(C)C)ccc1/C=C/c1ccc(/C=C/c2ccc(C3=C4C=CC(=[N+](C)C)C=C4[Si](C)(C)c4cc(N(C)C)ccc43)c(S(=O)(=O)[O-])c2)cc1 [BeRST 1, 5-((E)-4-((E)-4-(Dimethylamino)-2-methoxystyryl)styryl)-2-(7-(dimethylamino)-3-(dimethyliminio)-5,5-dimethyl-3,5-dihydrodibenzo[b,e]silin-10-yl)benzenesulfonate]
quantum yield (Φfl) ([1]; TBS/SDS aqueous buffer): 0.017 | emission maximum [1]: 683 nm | absorbance / excitation centered at [1, 8]: 658 nm | extinction coefficient at the incident irradiation ([1]; at incident irradiation (631 nm BeRST 1, 475 nm VF2.1.Cl)): 150,000 | quantum yield (Φfl) ([1]; methanol): 0.022 | voltage sensitivity ([2]; HEK cells loaded with 1 μM dye, whole-cell voltage clamp, n=15 cells): approximately 24%±5% | voltage sensitivity, fractional change in fluorescence ([2]; excited at 390 nm (3.3 W/cm^2)): 28 % ΔF/F per 100 mV | voltage sensitivity, fractional change in fluorescence ([2]; excited at 631 nm (6.7 W/cm^2)): 26 % ΔF/F per 100 mV | linearity of fluorescence response to membrane potential ([2]; range spanning ±100 mV): linear | FWHM duration of action potentials, optical record ([3]; electrophysiological record 1.65±0.15 ms): 1.97 ± 0.14 ms | optical response for action potentials ([3]; current clamp evoked action potentials): approximately 9.5 % ΔF/F | effect on action potential amplitude, duration, rise time, decay time, cellular capacitance [4]: No difference; also recorded: No statistically significant differences | change in fluorescence per action potential ([5]; field stimulation, GFP-expressing cells, n=5 pairs of cells): 8.7±0.8 % ΔF/F | change in fluorescence per action potential ([5]; field stimulation, cells not expressing GFP): approximately 9.2 % ΔF/F | optical response for action potentials ([5]; field stimulation, n=5 cells): 17.8 % ΔF/F | voltage transient for a single evoked action potential ([5]; neuron expressing GCaMP6s and stained with BeRST 1): approximately 15 % ΔF/F | increase in relative fluorescence to evoked train of action potentials ([5]; neurons expressing ASAP1 and stained with BeRST 1, S.E.M., n=4 cells): 15%±2.1% | resolution of individually evoked action potentials in trains ([5]; trains at 5, 10 and 20 Hz): visible in the BeRST 1 channel at all frequencies | emission with 390 nm excitation, share of full emission [6]: 35% | emission with 475 nm excitation compared to excitation at 630 nm [6]: ~7%

cresyl violet
quantum yield of reference standard [7]: 0.54

CN(C)c1ccc2c(c1)[Si](C)(C)C1=CC(=[N+](C)C)C=CC1=C2c1ccccc1S(=O)(=O)[O-] [BR, 2-(7-(Dimethylamino)-3-(dimethyliminio)-5,5-dimethyl-3,5-dihydrodibenzo[b,e]silin-10-yl) benzenesulfonate]
quantum yield (Φfl) ([1]; TBS/SDS aqueous buffer): 0.24 | emission maximum [1]: 681 nm | absorbance / excitation centered at [1, 8]: 658 nm | extinction coefficient [1, 8]: 150,000 M^−1 cm^−1 | quantum yield (Φfl) ([1]; methanol): 0.32 | change in absorbance with pH (spirocyclization) ([1]; pH 2.5 to 9): no change in absorbance | absorbance vs. solvent dielectric constant (solvatochromism) ([1]; ε=6 (10% water/dioxane v/v) to ε=71 (90% water/dioxane v/v)): remains unchanged | emission with 390 nm excitation, share of full emission [6]: 16% | emission with 475 nm excitation compared to excitation at 630 nm [6]: approximately 1%
